Consider 4 molecules from paper PMC7415805 (Theranostics, 2020).

In assay [1] the test system is 293FT cells expressing polymorphic TSPO. The assay is described as follows: In vitro cellular uptake of radioactive ligands in cells expressing polymorphic TSPO. The class given is cell-based, human. As to conditions: 293FT cells expressing TSPO WT or Mut-A147T; 1 h at 37°C. Here is the method:
Cells were seeded in 6-well plates (Sigma-Aldrich) until they reached approximately 80% confluency. […] The cells were then trypsinized (Gibco), counted, and 1×10^5 cells transferred into a 5 mL test tube containing warmed Hank's balanced salt solution (HBSS, Sigma-Aldrich) with 0.5% (w/v) bovine serum albumin (Sigma-Aldrich). […] The cells were then washed 3 times with cold HBSS and lysed for 5 min in 200 μL of 1% sodium dodecyl sulfate (SDS, Sigma-Aldrich). Cell lysates were collected, and radioactivity was measured by a Cobra II gamma counter (Canberra Packard; Vaughan, Ontario, Canada). Radioactivity was normalized according to the amount of total protein at the time of assay. Total protein levels were quantified by the BCA protein assay kit (Pierce, Rockford, IL, USA). All experiments were performed in triplicate.

Assay [2] deals with 293FT cells expressing polymorphic TSPOs. Kind of assay: PET scans of 293FT cells expressing polymorphic TSPOs (phantoms and mice bearing the cells). More on the design: species or system human. As to conditions: phantoms and mice bearing 293FT cells with polymorphic TSPOs.
Assay [3] deals with 293FT cells transfected with pCMV-TSPO/eGFP. The assay is described as follows: [18F]CB251 uptake in TSPO-overexpressing cells. The class given is cell-based, human. As to conditions: TSPO-overexpressing 293FT cells vs control. As for the experimental part: (§1) For overexpression of the TSPO protein, the 293FT cell line was transiently transfected with vectors (pCMV-eGFP/TSPO) (AddGene, Cambridge, MA, USA) harboring the eGFP and TSPO coding sequences. MDA-MB-231, which highly expresses TSPO, was used for the reduction of TSPO expression by shRNA (pCMV-eGFP/shTSPO; AddGene). Each vector used for various levels of TSPO expression was transfected by Lipofectamine 2000 (Invitrogen, Waltham, MA, USA) at a total concentration of 2.5 µg/mL. Fluorescent images were acquired by a confocal laser-scanning microscope (Leica TCS SP8; Wetzlar, Hesse, Germany), and Western blotting was performed for verification.
(§2) Cells were seeded in 6-well plates (Sigma-Aldrich) until they reached approximately 80% confluency. Before the uptake experiments, the cells were preincubated with glucose-free RPMI-1640 medium (Gibco) for 4 h. The cells were then trypsinized (Gibco), counted, and 1×10^5 cells transferred into a 5 mL test tube containing warmed Hank's balanced salt solution (HBSS, Sigma-Aldrich) with 0.5% (w/v) bovine serum albumin (Sigma-Aldrich). […] Cell lysates were collected, and radioactivity was measured by a Cobra II gamma counter (Canberra Packard; Vaughan, Ontario, Canada). Radioactivity was normalized according to the amount of total protein at the time of assay. Total protein levels were quantified by the BCA protein assay kit (Pierce, Rockford, IL, USA). […]

Assay [4] concerns MDA-MB-231 cells transfected with pCMV-shTSPO/eGFP. Kind of assay: [18F]CB251 uptake in cells with reduced TSPO expression. In kind it is cell-based, human. The note with it: MDA-MB-231 cells with reduced TSPO expression vs control. As for the experimental part: as §1, §2
Assay [5] has as its system RAW264.7. Kind of assay: [18F]CB251 uptake in activated macrophage cell line. The class given is cell-based, mouse. The note with it: RAW264.7 activated with LPS and IFN-γ for 24 h vs non-activated. As for the experimental part: (§3) RAW264.7, a mouse macrophage cell line and mouse splenocytes were used to evaluate TSPO expression. LPS (50 ng/mL, Sigma-Aldrich, St.Louis, MO, USA) and IFN-γ (20 ng/mL, Sigma-Aldrich) were used to activate immune cells. The 293FT (Invitrogen, Carlsbad, CA, USA) and MDA-MB-231 (ATCC, Manassas, VA, USA) cell lines were used for various TSPO expression levels. Cells were maintained in complete DMEM (for Raw264.7 and MDA-MB-231) or MEM (for 293FT) with 10% FBS and 1% antibiotics (penicillin-streptomycin). All media and reagents for cell culture, including FBS and antibiotics were purchased from Gibco (Grand Island, NY, USA).
as §2

Assay [6] concerns mouse splenocytes. The assay is described as follows: [18F]CB251 uptake in activated splenocytes. In kind it is cell-based. As to conditions: mouse splenocytes activated with LPS and IFN-γ for 24 h vs non-activated. Here is the method: as §3, §2
Assay [7] concerns the target T1, TSPO (Mus musculus, UniProt P50637).
T1 construct: from tissue; host or cells: brain (striatum) of living C57BL/6 mice after intracranial LPS or saline
The assay is described as follows: [18F]CB251 PET/MR in intracranial LPS neuroinflammation model. As to conditions: saline-injected mice, day 4; p=0.012. In kind it is in vivo. As for the experimental part:
C57BL/6 mice (male, 6 weeks old) were used for generating the intracranial inflammation model. LPS (Sigma-Aldrich, 5 µg/2 µL dissolved in saline) was used to induce local inflammation in the right striatum of the mouse brain (anteroposterior, +1.8; mediolateral, +2.0; dorsoventral, -3.0) via intracranial injection by a robotic stereotaxic device (Stoelting, Wood Dale, IL) equipped with a Hamilton syringe at a rate of 0.25 µL/min [52]-[54]. Saline was injected as a control. The mouse was placed in the isoflurane induction box (5% isoflurane, 95% air, 250 cc/min) until the animal was fully anesthetized, and the isoflurane percentage was adjusted to 2% at a flow rate of 250 cc/min during the process.
To visualize neuroinflammation, PET/MR scans were acquired by a simultaneous small animal PET insert (SimPET, Brightonic imaging, Seoul, Korea) combined with an M7 1.0 T MRI system (Aspect Imaging, Jerusalem, Israel). […] Mice were anesthetized with 1.5% isoflurane during imaging.
(§4) PET images were reconstructed using 3D OSEM algorithm (12 subsets and 3 iterations). […] PET and MR images were reconstructed and analyzed by the AMIDE program (ver 0.9.0, http://amide.sourceforge.net). The ratio of maximum PET SUV in the right and left striatum was then calculated.

In assay [8] the test system is intracranial LPS-induced neuroinflammation. The assay is described as follows: Anti-inflammatory treatment in intracranial LPS neuroinflammation model, read by [18F]CB251 PET and BLI. In kind it is in vivo, mouse. The note with it: CDDO-Me i.p. once daily for 3 days after LPS vs LPS-injected mice. Here is the method:
Luciferase-expressing cells were isolated from the dissected spleens of transgenic C57BL/6luc^Tg mice and centrifuged at 1300 rpm for 5 min at 4 °C). The red blood cell lysis buffer (1 mL/spleen, Sigma-Aldrich) was added to the cell pellet, and the mixture was incubated at room temperature for 3 min to remove red cells. After a double volume of RPMI medium was added to the cells, 2-3 volumes of red blood cell lysis buffer were added until complete lysis of red blood cells. Subsequently, the cells were re-suspended, ensuring a suspension of single cells, and filtered through a cell strainer (40 µm nylon, Falcon, Oneonta, NY). […] Bioluminescence intensity was measured by an IVIS 100 system (Perkin Elmer, Waltham, MA). […]
as §4
An in vivo IVIS 100 bioluminescence/optical imaging system (Xenogen, Alameda, CA, USA) was used to follow luciferase-expressing peripheral immune cells. […] The bioluminescent signal was acquired and analyzed by Living Image ver.2.50.2 software (Xenogen). […]

For assay [9], the target named is TSPO. The note with it: Ki of ligands for TSPO; cited from earlier work.
The test system of assay [10] is TSPO A147T mutant (LAB). As to conditions: previous reports; cited from earlier work.

As usually defined, the Ki is the dissociation constant of the complex between target and ligand, obtained from inhibition or displacement.

T1 sequence (P50637 whole entry): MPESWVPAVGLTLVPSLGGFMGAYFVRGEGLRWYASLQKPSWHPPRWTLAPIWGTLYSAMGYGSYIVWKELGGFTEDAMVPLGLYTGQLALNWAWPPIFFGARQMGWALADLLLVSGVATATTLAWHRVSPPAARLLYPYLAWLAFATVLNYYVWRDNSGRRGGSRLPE

Take `CCCN(CCC)C(=O)Cc1c(-c2ccc(OCCF)cc2)nc2c(Cl)cc(Cl)cn12` [CB251]: the “sensitivity of cellular uptake to TSPO polymorphism” value in assay [1] was “much less sensitive to TSPO polymorphism”. Besides, the “sensitivity of PET signal to TSPO polymorphism” value in assay [2] is recorded as “less sensitive to TSPO polymorphism”. Moreover, the “[18F]CB251 uptake” value in [3] is on record as “increased”; in assay [4] it was “decreased”; in assay [5], “increased”; in assay [6], “increased”. Also, the “[18F]CB251 PET signal, saline-injected right striatum vs non-injected left striatum” value in [7] was “increased slightly”.
In the case of `COC(=O)[C@]12CCC(C)(C)C[C@H]1[C@H]1C(=O)C=C3[C@@]4(C)C=C(C#N)C(=O)C(C)(C)[C@@H]4CC[C@@]3(C)[C@]1(C)CC2` [CDDO-Me, 2-Cyano-3,12-dioxo-oleana-1,9(11)-dien-28-oic acid methyl ester], in [8] (p=0.0025), the “BLI signal ratio (total photon flux, right/left striatum)” value is listed as “decreased dramatically”. Also, in [8] (p=0.0323), the “[18F]CB251 uptake ratio (SUVmax, right/left striatum)” value is “significantly decreased”.
Take `COc1ccccc1CN(C(C)=O)c1cnccc1Oc1ccccc1` [PBR28, reference compound]: the Ki in assay [9] was 6.1 nM. The “ratio of IC50 LAB/HAB” value in assay [10] is reported as 55.
In the case of `CCC(C)N(C)C(=O)c1cc2ccccc2c(-c2ccccc2Cl)n1` (stereo not drawn) [PK11195, reference compound], the “sensitivity of cellular uptake to TSPO polymorphism” value in [1] was “much less sensitive to TSPO polymorphism”.
